No end group written: not given here.
Experiments:
Assay type in all cases: biochemical
[1] = biological target: thrombin (Homo sapiens, UniProt P00734); assay: thrombin amidolytic activity towards chromogenic substrates
[2] = biological target: T1, APC (Homo sapiens, UniProt P04070); assay: inhibition of APC by recombinant mutant (Arg358)-α1-antitrypsin, time course; design: Protein C consists of a 155 amino acid residue light chain and a 262 amino acid residue heavy chain; from tissue; alpha1-AT mutant from Transgene, Strasbourg; conditions: 250 μM PC311-325, 500 μM PC142-155; 18 nM APC, 100 nM α1-AT
Description: Kinetic studies of inhibition of APC were performed with the higher affinity mutant α1 -AT pseudo-substrate. For the assay, 60 μl of 36 nM APC and/or 60 μl of 200 nM recombinant (Arg^358)-α1 -AT prepared in TBS-BSA at pH 7.4 containing 0.02% NaN3 and 2 mM CaCl2 were separately admixed with 500 μM PC311-325 or 1 mM PC142-155 and maintained for 30 minutes at 37° C. to form APC-peptide and/or α1 -AT-peptide admixtures for each peptide tested, respectively. Thereafter, the peptide-treated APC and α1 -AT admixtures were combined to form a reaction admixture. At selected time points, 8 μl aliquots from the reaction admixture were removed and admixed with 300 μl 0.8 mM S-2366 in TBS-BSA at pH 8.0 containing 0.02% NaN3 to initiate the hydrolysis of S-2366 by APC. The change in absorbance was measured over time as described in the amidolytic assay. […]
Since the number of amino acid residues involved in neutralization of APC by macromolecular plasma protease inhibitors is likely to be higher than the number of residues of APC involved in the cleavage of a small chromogenic substrate such as S-2366, the effect of anti-PC317-331 antibody on the time course of inhibition of APC by a larger pseudo-substrate, such as recombinant mutant (Arg^358)-α1 -AT was evaluated. […] The change in absorbance was measured over time as described in the amidolytic assay. […]
Target sequence in this assay (P04070 43-197): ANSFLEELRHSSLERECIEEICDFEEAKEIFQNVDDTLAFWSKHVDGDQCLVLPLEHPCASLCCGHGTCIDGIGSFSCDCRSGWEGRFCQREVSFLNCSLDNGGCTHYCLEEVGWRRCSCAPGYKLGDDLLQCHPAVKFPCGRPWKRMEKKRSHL
Target sequence in this assay (P04070 212-461): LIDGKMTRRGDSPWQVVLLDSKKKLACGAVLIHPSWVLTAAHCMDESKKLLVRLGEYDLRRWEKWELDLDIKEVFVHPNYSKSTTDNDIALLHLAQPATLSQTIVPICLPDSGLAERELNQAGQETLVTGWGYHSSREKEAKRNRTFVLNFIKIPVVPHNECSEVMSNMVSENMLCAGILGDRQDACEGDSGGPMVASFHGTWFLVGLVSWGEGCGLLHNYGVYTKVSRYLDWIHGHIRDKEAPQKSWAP

[3] = biological target: T1, APC; assay: Xa-1-stage coagulation assay, inhibition of APC anticoagulant activity; design: Protein C consists of a 155 amino acid residue light chain and a 262 amino acid residue heavy chain; from tissue; host or cells: human plasma factor IX concentrate
Description: For testing the inhibition of the synthetic peptides on APC activity described above, Xa-1-stage coagulation assays were also performed as described. See Seegers et al., Thrombosis Res., 13:233-243 (1978); Marlar et al., supra; and Walker et al., J. Biol. Chem., 265:1484-1489 (1990). PC heavy chain-derived peptides listed below in Table 6 and PC light chain-derived peptides listed below in Table 7 were prepared as described above and separately admixed for a final concentration of 2 mM with 120 nM APC in 100 μl of TBS-BSA at pH 7.4 to form separate peptide-APC admixtures. The resulting admixtures were maintained for ten minutes at 37° C. Separate aliquots of peptides maintained under the same conditions in the absence of APC served as controls for the inhibitory effect of synthetic peptides on APC anticoagulant activity. After the maintenance period, 100 μl of NHP and 100 μl of 200 μg/ml of rabbit brain cephalin (Sigma) were admixed into each peptide admixture and maintained for 200 seconds at 37° C. to form pre-coagulation admixtures. In some experiments, Factor VIII deficient plasma (George King Bio-Medical, Inc.) was used in the place of NHP to determine the effect of Factor VIII on the assay system. Coagulation was then initiated by the admixture of 100 μl of 0.62 nM human activated Factor X (Xa) (Enzyme Research Laboratories, Southbend, Ind.) in TBS-BSA containing 30 mM CaCl2 prewarmed to 37° C. to each of the pre-coagulation admixtures.
The time for clot formation was measured by an Electra 700 Automatic Coagulation Timer (Medical Laboratory Automation, Inc., Mount Vernon, N.Y.). Each peptide's effect was determined in duplicate. The results of the inhibition of APC anticoagulant activity by synthetic peptides as measured in Xa-1-stage coagulation assays are presented in Tables 6 and 7 below with the APTT assay results and are presented as the mean values obtained with APTT assays. Data for results with PC heavy chain-derived peptides are shown in Table 6 and data for results with PC light chain-derived peptides are shown in Table 7.
The results of inhibition of APC anticoagulant activity by PC light chain-derived peptides in a Xa-1 stage coagulation assay are shown in Table 7. The assay was performed in the presence of NHP. Peptides used in the assay were prepared as described in Example 1 and are listed in Table 7 by their corresponding residue positions in native PC protein (SEQ ID NO 1). For all peptides except PC142-155 used in the Xa-1 stage assays listed in Table 7, cysteine residues in the native PC amino acid residue sequence were substituted by either serine or glycine in the synthesized peptide. This was done to prevent multiple disulfide formation and subsequent potential polymerization among peptides with multiple cysteines. […]
Target sequence in this assay (P04070 43-197 limits assumed): as the sequence (P04070 43-197) above
Target sequence in this assay (P04070 212-450 limits assumed): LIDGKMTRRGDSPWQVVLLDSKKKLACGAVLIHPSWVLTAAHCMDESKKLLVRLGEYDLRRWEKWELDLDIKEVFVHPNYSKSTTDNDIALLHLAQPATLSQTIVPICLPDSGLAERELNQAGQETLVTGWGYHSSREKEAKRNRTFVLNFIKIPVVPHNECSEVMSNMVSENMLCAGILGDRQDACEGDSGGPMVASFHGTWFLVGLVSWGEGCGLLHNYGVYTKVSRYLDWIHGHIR

IC50 ([3]; Xa-1-stage assay in NHP, read-out: 50% inhibition of APC anticoagulant activity)	inhibition at 500 µM ([3]; final peptide concentration 500 μM, NHP, 0 = no observable effect +10%)	Molecule	effect on thrombin amidolytic activity towards chromogenic substrates [1]	effect on the time course of inhibition of APC by recombinant (Arg358)α1-AT [2]	inhibition of APC anticoagulant activity ([3]; Xa-1-stage assay)
		KRNRTFVLNFIKIPV-NH2 [PC311-325, Lys-Arg-Asn-Arg-Thr-Phe-Val-Leu-Asn-Phe-Ile-Lys-Ile-Pro-Val]	no significant effect	did not have any significant effect	
25 µM	80%	CSCC[C@H](NC(=O)[C@H](CCCNC(=N)N)NC(=O)[C@H](CCCCN)NC(=O)[C@H](Cc1c[nH]c2ccccc12)NC(=O)[C@@H]1CCCN1C(=O)[C@H](CCCNC(=N)N)NC(=O)CN)C(=O)N[C@@H](CCC(=O)O)C(=O)N[C@@H](CCCCN)C(=O)N[C@@H](CCCCN)C(=O)N[C@@H](CCCNC(=N)N)C(=O)N[C@@H](CO)C(=O)N[C@@H](Cc1c[nH]cn1)C(=O)N[C@@H](CC(C)C)C(=O)N[C@@H](CS)C(N)=O [PC142-155, Gly-Arg-Pro-Trp-Lys-Arg-Met-Glu-Lys-Lys-Arg-Ser-His-Leu]			
		MHKLREGKWRPKSR [Scrambled peptide, reference compound]	no significant effect		very little if any significant inhibition
